Data: PubChem BioAssay (NCI)
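Five compound concentrations were applied to cells in 96-well plates for 48 hours; endpoints were derived by simple linear interpolation of the resulting dose-response curve. GI50 = concentration required for 50% inhibition of growth. TGI denotes the concentration required for complete inhibition of growth.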

Legend:
Test in all cases: NCI tumour cell line growth inhibition, 48 h
NCI-H23 lung = tested on: NCI-H23 lung
DU-145 prostate = tested on: DU-145 prostate
NCI/ADR-RES ovarian = tested on: NCI/ADR-RES ovarian
PC-3 prostate = tested on: PC-3 prostate
HCT-116 colon = tested on: HCT-116 colon
LOX IMVI melanoma = tested on: LOX IMVI melanoma
MCF7 breast = tested on: MCF7 breast
SNB-19 CNS = tested on: SNB-19 CNS
HT29 colon = tested on: HT29 colon
MALME-3M melanoma = tested on: MALME-3M melanoma
MDA-MB-231 breast = tested on: MDA-MB-231 breast
K-562 leukemia = tested on: K-562 leukemia
HCT-15 colon = tested on: HCT-15 colon
ACHN renal = tested on: ACHN renal
SR leukemia = tested on: SR leukemia
CCRF-CEM leukemia = tested on: CCRF-CEM leukemia
KM12 colon = tested on: KM12 colon
OVCAR-4 ovarian = tested on: OVCAR-4 ovarian
A549 NSCLC = tested on: A549 NSCLC
OVCAR-5 ovarian = tested on: OVCAR-5 ovarian
HOP-92 NSCLC = tested on: HOP-92 NSCLC
MDA-MB-435 = tested on: MDA-MB-435
SN12C renal = tested on: SN12C renal
SK-MEL-28 melanoma = tested on: SK-MEL-28 melanoma
A498 renal = tested on: A498 renal
NCI-H226 lung = tested on: NCI-H226 lung
SF-295 CNS = tested on: SF-295 CNS
SW-620 colon = tested on: SW-620 colon
COLO 205 colon = tested on: COLO 205 colon
HCC-2998 colon = tested on: HCC-2998 colon
OVCAR-3 ovarian = tested on: OVCAR-3 ovarian
BT-549 breast = tested on: BT-549 breast
SK-OV-3 ovarian = tested on: SK-OV-3 ovarian
SK-MEL-2 melanoma = tested on: SK-MEL-2 melanoma
786-0 renal = tested on: 786-0 renal
HL-60(TB) leukemia = tested on: HL-60(TB) leukemia
MOLT-4 leukemia = tested on: MOLT-4 leukemia
U251 CNS = tested on: U251 CNS
EKVX NSCLC = tested on: EKVX NSCLC
NCI-H460 lung = tested on: NCI-H460 lung
T-47D breast = tested on: T-47D breast
SF-539 CNS = tested on: SF-539 CNS
RPMI-8226 leukemia = tested on: RPMI-8226 leukemia
UO-31 renal = tested on: UO-31 renal
RXF 393 renal = tested on: RXF 393 renal
SNB-75 CNS = tested on: SNB-75 CNS
UACC-62 melanoma = tested on: UACC-62 melanoma
HS 578T breast = tested on: HS 578T breast
SK-MEL-5 melanoma = tested on: SK-MEL-5 melanoma
IGROV1 ovarian = tested on: IGROV1 ovarian
NCI-H522 lung = tested on: NCI-H522 lung
UACC-257 melanoma = tested on: UACC-257 melanoma
HOP-62 NSCLC = tested on: HOP-62 NSCLC
TK-10 renal = tested on: TK-10 renal
OVCAR-8 ovarian = tested on: OVCAR-8 ovarian
SF-268 CNS = tested on: SF-268 CNS
M14 melanoma = tested on: M14 melanoma
CAKI-1 renal = tested on: CAKI-1 renal

## Cc1ccc(-c2cc(C(=O)N3N=C(c4ccc(N)cc4)CC3c3ccc(Cl)cc3)c3ccccc3n2)cc1 (centres undefined)
NCI-H23 lung
  GI50: 5.02 µM
  TGI: > 100 µM
DU-145 prostate
  GI50: 3.68 µM
  TGI: > 100 µM
NCI/ADR-RES ovarian
  GI50: 2.54 µM
  TGI: > 100 µM
PC-3 prostate
  GI50: 3.4 µM
  TGI: > 100 µM
HCT-116 colon
  GI50: 3.18 µM
  TGI: > 100 µM
LOX IMVI melanoma
  GI50: 4 µM
  TGI: > 100 µM
MCF7 breast
  GI50: 2.53 µM
  TGI: > 100 µM
SNB-19 CNS
  GI50: 6.51 µM
  TGI: > 100 µM
HT29 colon
  GI50: 3.35 µM
  TGI: > 100 µM
MALME-3M melanoma
  GI50: > 100 µM
  TGI: > 100 µM
MDA-MB-231 breast
  GI50: 3.94 µM
  TGI: 92.2 µM
K-562 leukemia
  GI50: 3.09 µM
  TGI: > 100 µM
HCT-15 colon
  GI50: 3.33 µM
  TGI: > 100 µM
ACHN renal
  GI50: 4.19 µM
  TGI: > 100 µM
SR leukemia
  GI50: 3.29 µM
  TGI: > 100 µM
CCRF-CEM leukemia
  GI50: 4.53 µM
  TGI: > 100 µM
KM12 colon
  GI50: 3.46 µM
  TGI: > 100 µM
OVCAR-4 ovarian
  GI50: 4.71 µM
  TGI: > 100 µM
A549 NSCLC
  GI50: 4.79 µM
  TGI: > 100 µM
OVCAR-5 ovarian
  GI50: 8.43 µM
  TGI: > 100 µM
HOP-92 NSCLC
  GI50: 4.1 µM
  TGI: 92.3 µM
MDA-MB-435
  GI50: 1 µM
  TGI: 3.66 µM
SN12C renal
  GI50: 6.84 µM
  TGI: > 100 µM
SK-MEL-28 melanoma
  GI50: 6.23 µM
  TGI: > 100 µM
A498 renal
  GI50: 1.64 µM
  TGI: 6.5 µM
NCI-H226 lung
  GI50: 6.47 µM
  TGI: > 100 µM
SF-295 CNS
  GI50: 3.13 µM
  TGI: > 100 µM
SW-620 colon
  GI50: 4.24 µM
  TGI: > 100 µM
COLO 205 colon
  GI50: 2.8 µM
  TGI: 9.48 µM
HCC-2998 colon
  GI50: 4.28 µM
  TGI: > 100 µM
OVCAR-3 ovarian
  GI50: 2.98 µM
  TGI: 36.6 µM
BT-549 breast
  GI50: 3.92 µM
  TGI: > 100 µM
SK-OV-3 ovarian
  GI50: 4.94 µM
  TGI: > 100 µM
SK-MEL-2 melanoma
  GI50: 3.81 µM
  TGI: > 100 µM
786-0 renal
  GI50: 4.22 µM
  TGI: > 100 µM
HL-60(TB) leukemia
  GI50: 3.49 µM
  TGI: > 100 µM
MOLT-4 leukemia
  GI50: 3.23 µM
  TGI: > 100 µM
U251 CNS
  GI50: 4.51 µM
  TGI: > 100 µM
EKVX NSCLC
  GI50: 3.99 µM
  TGI: > 100 µM
NCI-H460 lung
  GI50: 3.51 µM
  TGI: > 100 µM
T-47D breast
  GI50: 2.73 µM
  TGI: > 100 µM
SF-539 CNS
  GI50: 2.43 µM
  TGI: 8.1 µM
RPMI-8226 leukemia
  GI50: 4.1 µM
  TGI: > 100 µM
UO-31 renal
  GI50: 2.2 µM
  TGI: > 100 µM
RXF 393 renal
  GI50: 1.63 µM
  TGI: 7.06 µM
SNB-75 CNS
  GI50: 1.41 µM
  TGI: 6.68 µM
UACC-62 melanoma
  GI50: 2.06 µM
  TGI: > 100 µM
HS 578T breast
  GI50: 4.68 µM
  TGI: > 100 µM
SK-MEL-5 melanoma
  GI50: 2.5 µM
  TGI: > 100 µM
IGROV1 ovarian
  GI50: 6.48 µM
  TGI: > 100 µM
NCI-H522 lung
  GI50: 0.622 µM
  TGI: 4.21 µM
UACC-257 melanoma
  GI50: 33.7 µM
  TGI: > 100 µM
HOP-62 NSCLC
  GI50: 4.62 µM
  TGI: > 100 µM
TK-10 renal
  GI50: 8.51 µM
  TGI: > 100 µM
OVCAR-8 ovarian
  GI50: 5.25 µM
  TGI: > 100 µM
SF-268 CNS
  GI50: 4.09 µM
  TGI: > 100 µM

## C[N+](C)=C/C=C(\Cl)c1ccc2ccccc2c1
NCI-H23 lung
  TGI: 17.1 µM
DU-145 prostate
  TGI: 28.8 µM
NCI/ADR-RES ovarian
  TGI: 17.3 µM
PC-3 prostate
  TGI: 43.5 µM
HCT-116 colon
  TGI: 9.79 µM
LOX IMVI melanoma
  TGI: 12.8 µM
MCF7 breast
  TGI: > 73.4 µM
SNB-19 CNS
  TGI: 38.5 µM
HT29 colon
  TGI: 28.4 µM
MALME-3M melanoma
  TGI: 27.8 µM
MDA-MB-231 breast
  TGI: 28.8 µM
K-562 leukemia
  TGI: > 33.2 µM
HCT-15 colon
  TGI: 11.2 µM
ACHN renal
  TGI: 28.5 µM
SR leukemia
  TGI: 4.26 µM
KM12 colon
  TGI: 32.3 µM
OVCAR-4 ovarian
  TGI: 11.6 µM
A549 NSCLC
  TGI: > 100 µM
OVCAR-5 ovarian
  TGI: 39.8 µM
HOP-92 NSCLC
  TGI: 53.3 µM
MDA-MB-435
  TGI: 36 µM
SN12C renal
  TGI: 50 µM
SK-MEL-28 melanoma
  TGI: 11.1 µM
A498 renal
  TGI: > 100 µM
NCI-H226 lung
  TGI: 41.4 µM
SF-295 CNS
  TGI: 33.8 µM
SW-620 colon
  TGI: 29.2 µM
COLO 205 colon
  TGI: 41.4 µM
HCC-2998 colon
  TGI: 20.7 µM
OVCAR-3 ovarian
  TGI: 13.4 µM
BT-549 breast
  TGI: 38.6 µM
SK-OV-3 ovarian
  TGI: 38.2 µM
SK-MEL-2 melanoma
  TGI: 59.9 µM
786-0 renal
  TGI: 28.9 µM
HL-60(TB) leukemia
  TGI: 38.5 µM
M14 melanoma
  TGI: 23.2 µM
MOLT-4 leukemia
  TGI: 3.67 µM
U251 CNS
  TGI: 27.8 µM
EKVX NSCLC
  TGI: 60.1 µM
NCI-H460 lung
  TGI: 57.6 µM
T-47D breast
  TGI: 48.3 µM
SF-539 CNS
  TGI: 58.7 µM
CAKI-1 renal
  TGI: 25 µM
RPMI-8226 leukemia
  TGI: 14.6 µM
UO-31 renal
  TGI: 32.6 µM
RXF 393 renal
  TGI: 47.9 µM
SNB-75 CNS
  TGI: > 58.2 µM
UACC-62 melanoma
  TGI: 29.9 µM
HS 578T breast
  TGI: > 100 µM
SK-MEL-5 melanoma
  TGI: 36.5 µM
IGROV1 ovarian
  TGI: 34.9 µM
NCI-H522 lung
  TGI: 67.8 µM
UACC-257 melanoma
  TGI: 36.8 µM
HOP-62 NSCLC
  TGI: 35 µM
TK-10 renal
  TGI: 33.4 µM
OVCAR-8 ovarian
  TGI: 31.6 µM
SF-268 CNS
  TGI: 67 µM
